Test results reported in US11591341B2 (ALIGOS THERAPEUTICS, INC., priority 2019, dated 2023).

Test system: HBV
Experiment: HBV-DNA Antiviral Assay Using HepG2.117 Cells (intracellular HBV DNA by qPCR)
Assay type: cell-based, hepatitis B virus (genotype D)
Details: Hepatitis B virus, HepG2.117
Method in brief: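 Endpoint: qPCR copy number of intracellular HBV DNA after 3-day compound exposure, with inhibition set relative to the 2% DMSO control. The cells were doxycycline-free HepG2.117 carrying a Tet-off genotype D genome, dosed at nine 4-fold dilutions. A duplicate plate gave ATP-based viability (CC50).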

Structure (SMILES) | EC50
C[C@H](NC(=O)c1c2n(c(=O)n1-c1ccc(OCC(F)(F)F)cc1)CCN(C(=O)c1ccc(Br)c(Cl)c1)C2)c1ccc(OCC(N)=O)cc1-n1cccn1 (stereo in doubt) [Example 380, 7-(4-bromo-3-chloro-benzoyl)-3-oxo-N-[rac-(1S)-1-[4-(2-amino-2-oxo-ethoxy)-2-pyrazol-1-yl-phenyl]ethyl]-2-[4-(2,2,2-trifluoroethoxy)phenyl]-6,8-dihydro-5H-imidazo[1,5-a]pyrazine-1-carboxamide] | > 5000 nM
C[C@@H](NC(=O)c1c2n(c(=O)n1-c1ccc(OCC(F)(F)F)cc1)CCN(C(=O)c1ccc(Br)c(Cl)c1)C2)c1ccc(OCC(N)=O)cc1-n1cccn1 (stereo in doubt) [Example 381, 7-(4-bromo-3-chloro-benzoyl)-3-oxo-N-[rac-(1R)-1-[4-(2-amino-2-oxo-ethoxy)-2-pyrazol-1-yl-phenyl]ethyl]-2-[4-(2,2,2-trifluoroethoxy)phenyl]-6,8-dihydro-5H-imidazo[1,5-a]pyrazine-1-carboxamide] | > 5000 nM
C[C@H](NC(=O)c1c2n(c(=O)n1-c1ccc(OCC(F)(F)F)cc1)CCN(C(=O)c1ccc(Br)c(Cl)c1)C2)c1cccc2nccnc12 (stereo in doubt) [Example 384, 7-(4-bromo-3-chloro-benzoyl)-3-oxo-N-[rac-(1S)-1-quinoxalin-5-ylethyl]-2-[4-(2,2,2-trifluoroethoxy)phenyl]-6,8-dihydro-5H-imidazo[1,5-a]pyrazine-1-carboxamide] | 100 to 500 nM
C[C@@H](NC(=O)c1c2n(c(=O)n1-c1ccc(OCC(F)(F)F)cc1)CCN(C(=O)c1ccc(Br)c(Cl)c1)C2)c1cccc2nccnc12 (stereo in doubt) [Example 385, 7-(4-bromo-3-chloro-benzoyl)-3-oxo-N-[rac-(1R)-1-quinoxalin-5-ylethyl]-2-[4-(2,2,2-trifluoroethoxy)phenyl]-6,8-dihydro-5H-imidazo[1,5-a]pyrazine-1-carboxamide] | 100 to 500 nM
C[C@@H](NC(=O)c1c2n(c(=O)n1-c1ccc(-n3cccn3)cc1)CCN(C(=O)c1ccc(Br)c(Cl)c1)C2)c1ccccc1F (stereo in doubt) [Example 405, 7-(4-bromo-3-chloro-benzoyl)-3-oxo-2-(4-pyrazol-1-ylphenyl)-N-[rac-(1R)-1-(2-fluorophenyl)ethyl]-6,8-dihydro-5H-imidazo[1,5-a]pyrazine-1-carboxamide] | < 100 nM
C[C@H](NC(=O)c1c2n(c(=O)n1-c1ccc(-n3cccn3)cc1)CCN(C(=O)c1ccc(Br)c(Cl)c1)C2)c1ccccc1F (stereo in doubt) [Example 409, 7-(4-bromo-3-chloro-benzoyl)-3-oxo-2-(4-pyrazol-1-ylphenyl)-N-[rac-(1S)-1-(2-fluorophenyl)ethyl]-6,8-dihydro-5H-imidazo[1,5-a]pyrazine-1-carboxamide] | 500 to 5000 nM
C[C@H]1Cn2c(c(C(=O)NCc3ccccc3-n3cccn3)n(-c3ccc(OC4CC4)cc3)c2=O)CN1C(=O)c1ccc(Br)c(Cl)c1 (stereo in doubt) [Example 438, rac-(6S)-7-(4-bromo-3-chloro-benzoyl)-2-[4-(cyclopropoxy)phenyl]-6-methyl-3-oxo-N-[(2-pyrazol-1-ylphenyl)methyl]-6,8-dihydro-5H-imidazo[1,5-a]pyrazine-1-carboxamide] | < 100 nM
C[C@@H]1Cn2c(c(C(=O)NCc3ccccc3-n3cccn3)n(-c3ccc(OC4CC4)cc3)c2=O)CN1C(=O)c1ccc(Br)c(Cl)c1 (stereo in doubt) [Example 439, rac-(6R)-7-(4-bromo-3-chloro-benzoyl)-2-[4-(cyclopropoxy)phenyl]-6-methyl-3-oxo-N-[(2-pyrazol-1-ylphenyl)methyl]-6,8-dihydro-5H-imidazo[1,5-a]pyrazine-1-carboxamide] | 100 to 500 nM
C[C@@H]1Cn2c(c(C(=O)NCc3ccccc3-n3cncn3)n(-c3ccc(OC4CC4)cc3)c2=O)CN1C(=O)c1ccc(Br)c(Cl)c1 (stereo in doubt) [Example 447, rac-(6R)-7-(4-bromo-3-chloro-benzoyl)-2-[4-(cyclopropoxy)phenyl]-6-methyl-3-oxo-N-[[2-(1,2,4-triazol-1-yl)phenyl]methyl]-6,8-dihydro-5H-imidazo[1,5-a]pyrazine-1-carboxamide] | 100 to 500 nM
C[C@H]1Cn2c(c(C(=O)NCc3ccccc3-n3cncn3)n(-c3ccc(OC4CC4)cc3)c2=O)CN1C(=O)c1ccc(Br)c(Cl)c1 (stereo in doubt) [Example 448, rac-(6S)-7-(4-bromo-3-chloro-benzoyl)-2-[4-(cyclopropoxy)phenyl]-6-methyl-3-oxo-N-[[2-(1,2,4-triazol-1-yl)phenyl]methyl]-6,8-dihydro-5H-imidazo[1,5-a]pyrazine-1-carboxamide] | < 100 nM
COc1ccc(CNC(=O)c2c3n(c(=O)n2CCc2ccccc2)CCN(C(=O)c2ccc(Br)c(Cl)c2)C3)cc1 [Example 15, 7-(4-bromo-3-chlorobenzoyl)-N-[(4-methoxyphenyl)methyl]-3-oxo-2-(2-phenylethyl)-5H,6H,8H-imidazo[1,5-a]pyrazine-1-carboxamide] | > 5000 nM
COc1ccc(CNC(=O)c2c3n(c(=O)n2-c2cccc(OC)c2)CCN(C(=O)c2ccc(Br)c(Cl)c2)C3)cc1 [Example 21, 7-(4-bromo-3-chloro-benzoyl)-2-(3-methoxyphenyl)-N-[(4-methoxyphenyl)methyl]-3-oxo-6,8-dihydro-5H-imidazo[1,5-a]pyrazine-1-carboxamide] | 500 to 5000 nM
O=C(NCc1ccccc1)c1c2n(c(=O)n1-c1ccc(F)cc1)CCN(C(=O)c1ccc(Br)c(Cl)c1)C2 [Example 22, N-benzyl-7-(4-bromo-3-chloro-benzoyl)-2-(4-fluorophenyl)-3-oxo-6,8-dihydro-5H-imidazo[1,5-a]pyrazine-1-carboxamide] | 500 to 5000 nM
O=C(NCc1ccccc1)c1c2n(c(=O)n1-c1cccc(F)c1)CCN(C(=O)c1ccc(Br)c(Cl)c1)C2 [Example 23, N-benzyl-7-(4-bromo-3-chloro-benzoyl)-2-(3-fluorophenyl)-3-oxo-6,8-dihydro-5H-imidazo[1,5-a]pyrazine-1-carboxamide] | 500 to 5000 nM
COc1ccc(-n2c(C(=O)NCc3ccccc3)c3n(c2=O)CCN(C(=O)c2ccc(Br)c(Cl)c2)C3)cc1 [Example 24, N-benzyl-7-(4-bromo-3-chloro-benzoyl)-2-(4-methoxyphenyl)-3-oxo-6,8-dihydro-5H-imidazo[1,5-a]pyrazine-1-carboxamide] | 100 to 500 nM
NC(=O)c1ccc(-n2c(C(=O)NCc3ccccc3)c3n(c2=O)CCN(C(=O)c2ccc(Br)c(Cl)c2)C3)cc1 [Example 25, N-benzyl-7-(4-bromo-3-chloro-benozyl)-2-(4-carbamoylphenyl)-3-oxo-6,8-dihydro-5H-imidazo[1,5-a]pyrazine-1-carboxamide] | > 5000 nM
O=C(NCc1ccccc1)c1c2n(c(=O)n1-c1ccc(Cl)cc1)CCN(C(=O)c1ccc(Br)c(Cl)c1)C2 [Example 26, N-benzyl-7-(4-bromo-3-chloro-benzoyl)-2-(4-chlorophenyl)-3-oxo-6,8-dihydro-5H-imidazo[1,5-a]pyrazine-1-carboxamide] | 500 to 5000 nM
CN(Cc1ccccc1)C(=O)c1c2n(c(=O)n1-c1ccccc1)CCN(C(=O)c1ccc(Br)c(Cl)c1)C2 [Example 27, N-benzyl-7-(4-bromo-3-chloro-benzoyl)-N-methyl-3-oxo-2-phenyl-6,8-dihydro-5H-imidazo[1,5-a]pyrazine-1-carboxamide] | 500 to 5000 nM
O=C(NCCc1ccccc1)c1c2n(c(=O)n1-c1ccccc1)CCN(C(=O)c1ccc(Br)c(Cl)c1)C2 [Example 28, 7-(4-bromo-3-chloro-benzoyl)-3-oxo-2-phenyl-N-(2-phenylethyl)-6,8-dihydro-5H-imidazo[1,5-a]pyrazine-1-carboxamide] | 500 to 5000 nM
O=C(NCc1ccccc1)c1c2n(c(=O)n1-c1cccc(Cl)c1)CCN(C(=O)c1ccc(Br)c(Cl)c1)C2 [Example 29, N-benzyl-7-(4-bromo-3-chloro-benzoyl)-2-(3-chlorophenyl)-3-oxo-6,8-dihydro-5H-imidazo[1,5-a]pyrazine-1-carboxamide] | 500 to 5000 nM
CC(C)(NC(=O)c1c2n(c(=O)n1-c1ccccc1)CCN(C(=O)c1ccc(Br)c(Cl)c1)C2)c1ccccc1 [Example 30, 7-(4-bromo-3-chloro-benzoyl)-N-(1-methyl-1-phenyl-ethyl)-3-oxo-2-phenyl-6,8-dihydro-5H-imidazo[1,5-a]pyrazine-1-carboxamide] | > 5000 nM
O=C(NC1(c2ccccc2)CC1)c1c2n(c(=O)n1-c1ccccc1)CCN(C(=O)c1ccc(Br)c(Cl)c1)C2 [Example 31, 7-(4-bromo-3-chloro-benzoyl)-3-oxo-2-phenyl-N-(1-phenylcyclopropyl)-6,8-dihydro-5H-imidazo[1,5-a]pyrazine-1-carboxamide] | > 5000 nM
COc1ccc(CNC(=O)c2c3n(c(=O)n2-c2ccccc2)CCN(C(=O)c2ccc(Br)c(Cl)c2)C3)cc1OC [Example 32, 7-(4-bromo-3-chloro-benzoyl)-N-[(3,4-dimethoxyphenyl)methyl]-3-oxo-2-phenyl-6,8-dihydro-5H-imidazo[1,5-a]pyrazine-1-carboxamide] | 100 to 500 nM
COc1cccc(CNC(=O)c2c3n(c(=O)n2-c2ccccc2)CCN(C(=O)c2ccc(Br)c(Cl)c2)C3)c1 [Example 33, 7-(4-bromo-3-chloro-benzoyl)-N-[(3-methoxyphenyl)methyl]-3-oxo-2-phenyl-6,8-dihydro-5H-imidazo[1,5-a]pyrazine-1-carboxamide] | 100 to 500 nM
O=C(NCc1ccccc1)c1c2n(c(=O)n1-c1ccccc1)CCN(C(=O)c1ccc(Cl)c(Cl)c1)C2 [Example 34, N-benzyl-7-(3,4-dichlorobenzoyl)-3-oxo-2-phenyl-6,8-dihydro-5H-imidazo[1,5-a]pyrazine-1-carboxamide] | 500 to 5000 nM
NC(=O)c1cccc(-n2c(C(=O)NCc3ccccc3)c3n(c2=O)CCN(C(=O)c2ccc(Br)c(Cl)c2)C3)c1 [Example 35, N-benzyl-7-(4-bromo-3-chloro-benzoyl)-2-(3-carbamoylphenyl)-3-oxo-6,8-dihydro-5H-imidazo[1,5-a]pyrazine-1-carboxamide] | > 5000 nM
